Measurements taken from patent US6656947B2, “Antidepressant azaheterocyclylmethyl derivatives of 2,3-dihydro-1,4-dioxino[2,3-f]quinazoline” (Wyeth, priority 2001, dated 2003).

Assays:
serotonin transporter = molecular target: T1, serotonin transporter (Rattus norvegicus, UniProt P31652); test: 3H-paroxetine displacement, serotonin transporter affinity; format: binding
T1 construct: displace ^3H-paroxetine from male rat frontal cortical membranes; from tissue; host or cells: male rat frontal cortex membranes
T1 sequence (P31652 whole entry): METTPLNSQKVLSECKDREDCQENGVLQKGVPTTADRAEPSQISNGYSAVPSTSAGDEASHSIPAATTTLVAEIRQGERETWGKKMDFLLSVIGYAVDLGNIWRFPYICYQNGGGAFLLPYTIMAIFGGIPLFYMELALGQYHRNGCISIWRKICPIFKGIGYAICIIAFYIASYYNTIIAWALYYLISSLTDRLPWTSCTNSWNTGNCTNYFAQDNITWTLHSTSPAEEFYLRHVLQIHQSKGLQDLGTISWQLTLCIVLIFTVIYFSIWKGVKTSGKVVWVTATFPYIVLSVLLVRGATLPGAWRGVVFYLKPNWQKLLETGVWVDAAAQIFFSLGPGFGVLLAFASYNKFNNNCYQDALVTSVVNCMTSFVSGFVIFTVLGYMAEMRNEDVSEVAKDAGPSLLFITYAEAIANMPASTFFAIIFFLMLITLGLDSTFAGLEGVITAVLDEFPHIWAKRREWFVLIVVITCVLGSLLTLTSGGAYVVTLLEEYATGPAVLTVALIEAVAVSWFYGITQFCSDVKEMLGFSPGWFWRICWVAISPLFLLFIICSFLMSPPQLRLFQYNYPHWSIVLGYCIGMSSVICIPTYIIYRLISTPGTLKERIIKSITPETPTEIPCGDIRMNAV

human 5-HT1A receptors = molecular target: T2, human 5-HT1A receptors (Homo sapiens, UniProt P08908); test: [3H] 8-OHDPAT displacement, 5-HT1A receptor affinity; format: binding
T2 construct: expressed in transfected cells; host or cells: CHO cells
T2 sequence (P08908 1-422): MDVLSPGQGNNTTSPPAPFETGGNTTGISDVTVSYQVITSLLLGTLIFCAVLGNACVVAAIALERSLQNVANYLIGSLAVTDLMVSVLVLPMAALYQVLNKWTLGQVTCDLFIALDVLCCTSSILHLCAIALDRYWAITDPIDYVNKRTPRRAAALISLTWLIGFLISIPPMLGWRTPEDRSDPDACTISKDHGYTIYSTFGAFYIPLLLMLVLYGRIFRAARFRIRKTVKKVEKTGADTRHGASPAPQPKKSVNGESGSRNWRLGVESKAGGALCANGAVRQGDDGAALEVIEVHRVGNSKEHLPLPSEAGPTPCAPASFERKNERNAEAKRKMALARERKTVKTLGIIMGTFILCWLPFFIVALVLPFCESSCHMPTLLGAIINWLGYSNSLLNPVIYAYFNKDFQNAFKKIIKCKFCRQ
From the text: High affinity for the serotonin 5-HT1A receptor was established by testing the claimed compound's ability to displace [^3H] 8-OHDPAT (dipropylamino-tetralin) from the 5-HT1A serotonin receptor following a modification of the procedure of Hall et al., J. Neurochem. 44, 1685 (1985) which utilizes CHO cells stably transfected with human 5-HT1A receptors.

[1] = molecular target: T3, cloned human 5-HT1A receptors (Homo sapiens, UniProt P08908); test: 35S-GTPγS binding assay, 5-HT1A antagonist activity; format: biochemical; conditions: reversal of the effects of standard agonist 8-OHDPAT on 35S-GTPγS binding; for IC50: membranes with cloned human 5-HT1A receptors, read-out: 5-HT1A Function IC50; for 5-HT1A Function Imax (maximum inhibitory effect): value in parentheses
T3 construct: expressed in transfected cells
T3 sequence (P08908 1-422): T2 sequence (P08908 1-422)
Protocol: Antagonist activity at 5-HT1A receptors was established by using a ^35S-GTPγS binding assay similar to that used by Lazareno and Birdsall (Br. J. Pharmacol. 109: 1120, 1993), in which the test compound's ability to affect the binding of ^35S-GTPγS to membranes containing cloned human 5-HT1A receptors was determined. Agonists produce an increase in binding whereas antagonists produce no increase but rather reverse the effects of the standard agonist 8-OHDPAT. The test compound's maximum inhibitory effect is represented as the Imax, while its potency is defined by the IC50.

Structure (SMILES) | Ki (serotonin transporter) | Ki (human 5-HT1A receptors) | IC50 [1] | 5-HT1A Function Imax (maximum inhibitory effect) [1] | melting point
CCc1ncc2c3c(ccc2n1)OCC(CN1CC=C(c2c[nH]c4ccccc24)CC1)O3 (stereo not drawn) [Example 5, 2-[(4-(1H-Indol-3-yl)-3,6-dihydropyridin-1(2H)-yl)methyl]-8-ethyl-2,3-dihydro[1,4]dioxino[2,3-f]quinazoline] | 0.00425 µM | 0.00827 µM | 0.209 µM | (100) | 203 to 211 °C
C1=C(c2c[nH]c3ccccc23)CCN(CC2COc3ccc4ncncc4c3O2)C1 (stereo not drawn) [Example 2, 2-[(4-(1H-Indol-3-yl)-3,6-dihydropyridin-1(2H)-yl)methyl]-2,3-dihydro[1,4]dioxino[2,3-f]quinazoline] | 0.00287 µM | 0.015 µM | 0.379 µM | (100) | –
Cc1nc2ccc3c(c2c[n+]1[O-])OC(CN1CC=C(c2c[nH]c4ccccc24)CC1)CO3 (stereo not drawn) [Example 3, 2-[(4-(1H-Indol-3-yl)-3,6-dihydropyridin-1(2H)-yl)methyl]-8-methyl-2,3-dihydro[1,4]dioxino[2,3-f]quinazoline 9-oxide] | 0.00464 µM | 0.0256 µM | 0.44 µM | (94.0) | –
Fc1ccc2[nH]cc(C3=CCN(CC4COc5ccc6ncncc6c5O4)CC3)c2c1 (stereo not drawn) [Example 1, 2-[(4-(5-Fluoro-1H-indol-3-yl)-3,6-dihydropyridin-1(2H)-yl)methyl]-2,3-dihydro[1,4]dioxino[2,3-f]quinazoline] | 0.00224 µM | 0.0515 µM | 0.499 µM | (94.0) | –
Fc1ccc2[nH]cc(C3=CCN(CC4COc5ccc6ncncc6c5O4)CC3)c2c1 (stereo not drawn) (hydrate or solvate) [Example 1, 2-[(4-(5-Fluoro-1H-indol-3-yl)-3,6-dihydropyridin-1(2H)-yl)methyl]-2,3-dihydro[1,4]dioxino[2,3-f]quinazoline] | – | – | – | – | 233 to 235 °C
Cc1ncc2c3c(ccc2n1)OCC(CN1CC=C(c2c[nH]c4ccccc24)CC1)O3 (stereo not drawn) [Example 4, 2-[(4-(1H-Indol-3-yl)-3,6-dihydropyridin-1(2H)-yl)methyl]-8-methyl-2,3-dihydro[1,4]dioxino[2,3-f]quinazoline] | 0.00226 µM | 0.0024 µM | 0.116 µM | (100) | –
Cc1ncc2c3c(ccc2n1)OCC(CN1CC=C(c2c[nH]c4ccccc24)CC1)O3 (stereo not drawn) (hydrate or solvate) [Example 4, 2-[(4-(1H-Indol-3-yl)-3,6-dihydropyridin-1(2H)-yl)methyl]-8-methyl-2,3-dihydro[1,4]dioxino[2,3-f]quinazoline] | – | – | – | – | 198 to 202 °C
C1=C(c2c[nH]c3ccccc23)CCN(CC2COc3ccc4ncncc4c3O2)C1 (stereo not drawn) (hydrate or solvate) [Example 2, 2-[(4-(1H-Indol-3-yl)-3,6-dihydropyridin-1(2H)-yl)methyl]-2,3-dihydro[1,4]dioxino[2,3-f]quinazoline] | – | – | – | – | 204 to 207 °C
